Data on 24 molecules can be found in US11505536B2, “Dihydroorotate dehydrogenase inhibitors” (Janssen Biotech, Inc., priority 2019, dated 2022).

A value given as a limit tells only on which side of the number the result lay.

In one assay the target is human DHODH (Homo sapiens (Human), UniProt Q02127). As to the kind of experiment: DHODH Enzymatic Assay. In kind it is biochemical. The conditions noted are these: purified human DHODH, DCIP absorbance, end-point mode; read-out: hDHODH IC50. In short, it runs like this:
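Purified human DHODH in […] HEPES pH 7.5, 150 mM NaCl, 0.5 mM EDTA, 0.1% Triton X-100; reaction started with substrate mix of 20 mM DHO, 5 mM CoQ6, 1 mM DCIP. End-point read as DCIP reduction (absorbance ~600 nm) after brequinar quench.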

Assay [1] has as its system MOLM-13 cells (human acute myeloid leukemia cells). As to the kind of experiment: MOLM-13 Cellular Assay. In kind it is cell-based. The conditions noted are these: 72 hours exposure, cell viability by CellTiter-Glo. The method, boiled down: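 MOLM-13 AML cells, seeded at 5,000/well in RPMI 1640 with 10% FBS, were treated with compounds right after seeding for 72 h at 37 °C, 5% CO2. Viability read by CellTiter-Glo luminescence.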
In general terms: Cellular ATP, detected with luciferase, serves as a proxy for viable cell number.

human DHODH, sequence (Q02127 whole entry): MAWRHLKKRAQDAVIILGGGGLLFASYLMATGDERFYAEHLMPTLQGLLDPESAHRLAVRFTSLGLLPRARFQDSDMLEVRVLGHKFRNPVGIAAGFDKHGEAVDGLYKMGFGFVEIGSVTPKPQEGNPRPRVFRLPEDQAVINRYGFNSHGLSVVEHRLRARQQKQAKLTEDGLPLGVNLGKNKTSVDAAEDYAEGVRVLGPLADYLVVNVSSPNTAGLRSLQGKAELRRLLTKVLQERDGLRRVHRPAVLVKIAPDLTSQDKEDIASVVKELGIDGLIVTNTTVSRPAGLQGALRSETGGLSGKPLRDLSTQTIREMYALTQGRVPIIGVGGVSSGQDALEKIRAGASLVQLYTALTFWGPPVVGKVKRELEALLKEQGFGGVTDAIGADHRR

In general, IC50 refers to the concentration at which inhibition is half-maximal. Take `CCn1c(CO)nn(-c2cc3c(C(C)C)cn(-c4cccnc4C)c(=O)c3cc2F)c1=O` [Example 138, 6-(4-Ethyl-3-(hydroxymethyl)-5-oxo-4,5-dihydro-1H-1,2,4-triazol-1-yl)-7-fluoro-4-isopropyl-2-(2-methylpyridin-3-yl)isoquinolin-1(2H)-one]: the IC50 is 80.4 nM at human DHODH and over 100 nM in assay [1] (Homo sapiens, MOLM-13, 72 h).
`C=C(C)c1cn(-c2c(F)ccc(OC)c2Cl)c(=O)c2cc(F)c(-n3nc(CO)n(CC)c3=O)cc12` [Example 51, 2-(2-Chloro-6-fluoro-3-methoxyphenyl)-6-(4-ethyl-3-(hydroxymethyl)-5-oxo-4,5-dihydro-1H-1,2,4-triazol-1-yl)-7-fluoro-4-(prop-1-en-2-yl)isoquinolin-1(2H)-one]: the IC50 on human DHODH was 0.267 nM; in assay [1], 0.1 nM; in assay [1] (Homo sapiens, MOLM-13, 72 h), at most 0.2 nM.
In the case of `CCn1c(CO)nn(-c2nc3c(C(C)C)cn(-c4c(F)cccc4Cl)c(=O)c3cc2F)c1=O` [Example 36, 6-(2-Chloro-6-fluorophenyl)-2-(4-ethyl-3-(hydroxymethyl)-5-oxo-4,5-dihydro-1H-1,2,4-triazol-1-yl)-3-fluoro-8-isopropyl-1,6-naphthyridin-5(6H)-one], the IC50 on human DHODH is 0.356 nM; in assay [1] (Homo sapiens, MOLM-13, 72 h), 0.4 nM.
Turning to `CCn1c(CO)nn(-c2nc3c(C(C)C)cn(-c4ccccc4C)c(=O)c3cc2F)c1=O` [Example 40, 2-(4-Ethyl-3-(hydroxymethyl)-5-oxo-4,5-dihydro-1H-1,2,4-triazol-1-yl)-3-fluoro-8-isopropyl-6-(o-tolyl)-1,6-naphthyridin-5(6H)-one], the concentration for half-maximal inhibition (IC50) on human DHODH is 0.802 nM; in assay [1] (Homo sapiens, MOLM-13, 72 h), 0.8 nM.
As for `CCn1c(CO)nn(-c2cc3c(C(C)C)cn(C4CCCC4)c(=O)c3cc2F)c1=O` [Example 109, 2-Cyclopentyl-6-(4-ethyl-3-(hydroxymethyl)-5-oxo-4,5-dihydro-1H-1,2,4-triazol-1-yl)-7-fluoro-4-isopropylisoquinolin-1(2H)-one], the IC50 came out at 5.37 nM on human DHODH and 9 nM in assay [1] (Homo sapiens, MOLM-13, 72 h).
In the same order, the values of `CCn1c(CO)nn(-c2cc3c(C(C)C)cn(-c4cc(OC)ncc4C)c(=O)c3cc2F)c1=O` [Example 113, 6-(4-Ethyl-3-(hydroxymethyl)-5-oxo-4,5-dihydro-1H-1,2,4-triazol-1-yl)-7-fluoro-4-isopropyl-2-(2-methoxy-5-methylpyridin-4-yl)isoquinolin-1(2H)-one] are 2.1 nM and 3 nM.
In the case of `CCn1c(CO)nn(-c2cc3c(C(C)C)cn(-c4cc(OC)ncc4F)c(=O)c3cc2F)c1=O` [Example 91, 6-(4-Ethyl-3-(hydroxymethyl)-5-oxo-4,5-dihydro-1H-1,2,4-triazol-1-yl)-7-fluoro-2-(5-fluoro-2-methoxypyridin-4-yl)-4-isopropylisoquinolin-1(2H)-one], the concentration for half-maximal inhibition (IC50) at human DHODH amounted to 6.05 nM; in assay [1] (Homo sapiens, MOLM-13, 72 h), 30 nM.
In the case of `CCn1c(CO)nn(-c2ccc3c(=O)n(-c4c(Cl)cccc4Cl)cc(C4(C)CC4)c3c2)c1=O` [Example 7, 2-(2,6-Dichlorophenyl)-6-(4-ethyl-3-(hydroxymethyl)-5-oxo-4,5-dihydro-1H-1,2,4-triazol-1-yl)-4-(1-methylcyclopropyl)isoquinolin-1(2H)-one], the IC50 turned out to be 0.965 nM at human DHODH and 2 nM in assay [1] (Homo sapiens, MOLM-13, 72 h).
As to `CCn1c(CO)nn(-c2cc3c(C(C)C)cn(-c4c(C)cccc4F)c(=O)c3cc2F)c1=O` [Example 69, 6-(4-Ethyl-3-(hydroxymethyl)-5-oxo-4,5-dihydro-1H-1,2,4-triazol-1-yl)-7-fluoro-2-(2-fluoro-6-methylphenyl)-4-isopropylisoquinolin-1(2H)-one], the IC50 on human DHODH came out at 0.435 nM; in assay [1] (Homo sapiens, MOLM-13, 72 h), 0.7 nM.
Turning to `C=C(C)c1cn(-c2cc(OC)ncc2F)c(=O)c2cc(F)c(-n3nc(CO)n(CC)c3=O)cc12` [Example 85, 6-(4-Ethyl-3-(hydroxymethyl)-5-oxo-4,5-dihydro-1H-1,2,4-triazol-1-yl)-7-fluoro-2-(5-fluoro-2-methoxypyridin-4-yl)-4-(prop-1-en-2-yl)isoquinolin-1(2H)-one], the IC50 on human DHODH is 6.55 nM; in assay [1] (Homo sapiens, MOLM-13, 72 h) it was 20 nM.
Take `CCn1c(CO)nn(-c2cc3c(C(C)C)cn(-c4cccc(F)c4C)c(=O)c3cc2F)c1=O` [Example 74, 6-(4-Ethyl-3-(hydroxymethyl)-5-oxo-4,5-dihydro-1H-1,2,4-triazol-1-yl)-7-fluoro-2-(3-fluoro-2-methylphenyl)-4-isopropylisoquinolin-1(2H)-one]: the concentration for half-maximal inhibition (IC50) was 2.24 nM on human DHODH and 7 nM in assay [1] (Homo sapiens, MOLM-13, 72 h).
Consider `C=C(C)c1cn(-c2ccccc2C)c(=O)c2ccc(-n3nc(CO)n(CC)c3=O)cc12` [Example 15, 6-(4-Ethyl-3-(hydroxymethyl)-5-oxo-4,5-dihydro-1H-1,2,4-triazol-1-yl)-4-(prop-1-en-2-yl)-2-(o-tolyl)isoquinolin-1(2H)-one], for which the IC50 on human DHODH is 0.634 nM; in assay [1] (Homo sapiens, MOLM-13, 72 h) it was 0.4 nM.
Turning to `CCn1c(CO)nn(-c2cc3c(C(C)C)cn(-c4cc(C)cnc4Cl)c(=O)c3cc2F)c1=O` [Example 98, 2-(2-Chloro-5-methylpyridin-3-yl)-6-(4-ethyl-3-(hydroxymethyl)-5-oxo-4,5-dihydro-1H-1,2,4-triazol-1-yl)-7-fluoro-4-isopropylisoquinolin-1(2H)-one], the 50% inhibitory concentration (IC50) at human DHODH was 6.29 nM; in assay [1] (Homo sapiens, MOLM-13, 72 h), 50 nM.
As to `CCn1c(CO)nn(-c2cc3c(C(C)C)cn(-c4ncncc4C)c(=O)c3cc2F)c1=O` [Example 104, 6-(4-Ethyl-3-(hydroxymethyl)-5-oxo-4,5-dihydro-1H-1,2,4-triazol-1-yl)-7-fluoro-4-isopropyl-2-(5-methylpyrimidin-4-yl)isoquinolin-1(2H)-one], the half-maximal inhibitory concentration (IC50) on human DHODH was 43.5 nM; in assay [1] (Homo sapiens, MOLM-13, 72 h), over 100 nM.
In the case of `CCn1c(CO)nn(-c2cc3c(C(C)C)cn(-c4nc(OC)ccc4F)c(=O)c3cc2F)c1=O` [Example 96, 6-(4-Ethyl-3-(hydroxymethyl)-5-oxo-4,5-dihydro-1H-1,2,4-triazol-1-yl)-7-fluoro-2-(3-fluoro-6-methoxypyridin-2-yl)-4-isopropylisoquinolin-1(2H)-one], the IC50 worked out at 6.14 nM at human DHODH and 9 nM in assay [1] (Homo sapiens, MOLM-13, 72 h).
As for `C=C(C)c1cn(-c2cc(OC)ccc2F)c(=O)c2cc(F)c(-n3nc(CO)n(CC)c3=O)cc12` [Example 44, 6-(4-Ethyl-3-(hydroxymethyl)-5-oxo-4,5-dihydro-1H-1,2,4-triazol-1-yl)-7-fluoro-2-(2-fluoro-5-methoxyphenyl)-4-(prop-1-en-2-yl)isoquinolin-1(2H)-one], the 50% inhibitory concentration (IC50) on human DHODH was 2.22 nM; in assay [1] (Homo sapiens, MOLM-13, 72 h), 0.7 nM.
Regarding `CCn1c(CO)nn(-c2cc3c(C(C)C(F)(F)F)nn(-c4ccccc4C)c(=O)c3cc2F)c1=O` (racemic) [Example 55, Racemic 6-(4-Ethyl-3-(hydroxymethyl)-5-oxo-4,5-dihydro-1H-1,2,4-triazol-1-yl)-7-fluoro-2-(o-tolyl)-4-(1,1,1-trifluoropropan-2-yl)phthalazin-1(2H)-one], the half-maximal inhibitory concentration (IC50) on human DHODH worked out at 1.2 nM; in assay [1] (Homo sapiens, MOLM-13, 72 h) it was 0.5 nM.
Turning to `C=C(C)c1cn(-c2ccccc2F)c(=O)c2cc(F)c(-n3nc(CO)n(CC)c3=O)cc12` [Example 66, 6-(4-Ethyl-3-(hydroxymethyl)-5-oxo-4,5-dihydro-1H-1,2,4-triazol-1-yl)-7-fluoro-2-(2-fluorophenyl)-4-(prop-1-en-2-yl)isoquinolin-1(2H)-one], the IC50 on human DHODH is under 0.169 nM; in assay [1] (Homo sapiens, MOLM-13, 72 h) it was 0.3 nM.
For `CCn1c(CO)nn(-c2ccc3c(=O)n(-c4c(F)cccc4Cl)cc(C4(C)CC4)c3c2)c1=O` [Example 24, 2-(2-Chloro-6-fluorophenyl)-6-(4-ethyl-3-(hydroxymethyl)-5-oxo-4,5-dihydro-1H-1,2,4-triazol-1-yl)-4-(1-methylcyclopropyl)isoquinolin-1(2H)-one], the IC50 at human DHODH was 1.65 nM; in assay [1] (Homo sapiens, MOLM-13, 72 h) it was 1 nM.
Take `CCC(C)c1cn(-c2c(F)cccc2Cl)c(=O)c2cc(F)c(-n3nc(CO)n(CC)c3=O)cc12` (racemic) [Example 48, Racemic-4-(sec-Butyl)-2-(2-chloro-6-fluorophenyl)-6-(4-ethyl-3-(hydroxymethyl)-5-oxo-4,5-dihydro-1H-1,2,4-triazol-1-yl)-7-fluoroisoquinolin-1(2H)-one]: the IC50 at human DHODH came out at 0.907 nM; in assay [1] (Homo sapiens, MOLM-13, 72 h) it was 0.6 nM.
Turning to `CCn1c(CO)nn(-c2cc3c([C@@H](C)C(F)(F)F)cn(-c4ccccc4C)c(=O)c3cc2F)c1=O` [Example 102, (R)-6-(4-Ethyl-3-(hydroxymethyl)-5-oxo-4,5-dihydro-1H-1,2,4-triazol-1-yl)-7-fluoro-2-(o-tolyl)-4-(1,1,1-trifluoropropan-2-yl)isoquinolin-1(2H)-one], the IC50 on human DHODH was determined as 0.26 nM; in assay [1] (Homo sapiens, MOLM-13, 72 h) it was 0.3 nM.
In the same order, the values of `CCn1c(CO)nn(-c2cc3c(C(C)C)cn(-c4cnsc4C)c(=O)c3cc2F)c1=O` [Example 132, 6-(4-Ethyl-3-(hydroxymethyl)-5-oxo-4,5-dihydro-1H-1,2,4-triazol-1-yl)-7-fluoro-4-isopropyl-2-(5-methylisothiazol-4-yl)isoquinolin-1(2H)-one] are 3.72 nM and 4 nM.
Turning to `C=C(C)c1cn(-c2ccccc2C)c(=O)c2cc(F)c(-n3nc(CO)n(CC)c3=O)nc12` [Example 32, 2-(4-Ethyl-3-(hydroxymethyl)-5-oxo-4,5-dihydro-1H-1,2,4-triazol-1-yl)-3-fluoro-8-(prop-1-en-2-yl)-6-(o-tolyl)-1,6-naphthyridin-5(6H)-one], the IC50 on human DHODH was 1.01 nM; in assay [1] (Homo sapiens, MOLM-13, 72 h), 2 nM.
In the same order, the values of `CCn1c(CO)nn(-c2cc3c(C(C)C)cn(C4CCCCC4)c(=O)c3cc2F)c1=O` [Example 107, 2-Cyclohexyl-6-(4-ethyl-3-(hydroxymethyl)-5-oxo-4,5-dihydro-1H-1,2,4-triazol-1-yl)-7-fluoro-4-isopropylisoquinolin-1(2H)-one] are 2.07 nM and 6 nM.
